Assay [1] deals with Klebsiella pneumoniae strain NCTC 9633 (ATCC #13883). Nature of the assay: bacterial proliferation assay, K. pneumoniae. The class given is cell-based. The settings on record: for EC50: Klebsiella pneumoniae, read-out: Bacterial Proliferation EC50 K. pneumoniae. As for the experimental part:
(§1) All compounds were evaluated for inhibiting the proliferation of E. coli and each of the ESKAPE bacteria. Results presented represent the averages of EC50 values obtained from at least four replicates. Evaluating compounds for inhibition of bacterial cell proliferation.
(§2) Growth Media: E. coli were grown with LB medium and all ESKAPE bacteria were grown in Brain Heart Infusion (BHI) medium (Becton, Dickinson and Company), with all liquid cultures supplemented with 25 mg/L Ca^2+ and 12.5 mg/L Mg^2+ to mimic physiological free concentrations of these cations. A 10 mg/mL Ca^2+ stock solution was prepared by dissolving 1.84 g of CaCl2.2H2O in 50 mL of deionized water, and a 10 mg/mL Mg^2+ stock solution was prepared by dissolving 4.18 g of MgCl2.6H2O in 50 mL deionized water—filter sterilized using 0.2 μm cellulose-acetate filters. 2.5 mL of the sterile 10 mg/mL Ca^2+ stock and 1.25 mL of the sterile 10 mg/mL Mg^2+ stock solutions were added per 1 L of autoclaved LB or BHI media to obtain 25 mg/L Ca^2+ and 12.5 mg/L Mg^2+ ions, respectively.
(§3) General Assay Protocol: Stock bacterial cultures were streaked onto LB or BHI agar plates and grown overnight at 37° C. Fresh aliquots of cation supplemented media were inoculated with single bacterial colonies and the cultures were grown overnight at 37° C. with shaking (240 rpm). The following morning, cultures were diluted 10-fold into fresh media and grown at 37° C. until bacteria had reached mid-log phase growth (OD600˜0.4-0.6). The cultures were then diluted into fresh media to achieve final OD600 readings of 0.017. Aliquots of these diluted cultures (30 μL) were added to clear, flat-bottom 384-well polystyrene plates that were previously stamped with 0.5 μL of test compounds in 20 μL of media (yielding initial OD600=0.01 bacterial cultures). All compounds were tested in dose-response with concentration ranges during the proliferation assays from 100 μM to 46 nM (3-fold dilution series). A second set of baseline control plates were prepared analogously, but without any bacteria added, to correct for possible compound absorbance and/or precipitation. […] Plates were then read at 600 nm using a Molecular Devices SpectraMax Plus384 microplate reader. […] Results presented represent the averages of EC50 values obtained from at least four replicates.
(§4) Evaluating analogs for inhibiting the growth of E. coli and the ESKAPE bacteria. Analogs were initially tested for antibacterial efficacy against representative strains of antibiotic-sensitive E. coli and the ESKAPE bacteria. To determine compound efficacy, bacterial proliferation assays were carried out in liquid media culture supplemented with physiological concentrations of free calcium and magnesium cations. For these assays, bacterial cultures (OD600=0.01) were exposed to test compounds in 8-point, 3-fold dilution series (100 μM to 46 nM concentration range), in 384-well plates. After addition of compounds to cultures, the plates were sealed with Breathe-Easy gas permeable membranes and allowed to grow to mid-log phase (OD600˜0.4-0.6), whereupon final OD600 readings were taken to assess for bacterial growth and inhibition.

In another assay the target is T1, E. coli GroEL (Escherichia coli, UniProt P0A6F5).
T1 construct: made in house; host or cells: NEB 5-alpha E. coli
Nature of the assay: GroEL-mediated ATPase assay. It counts as biochemical. As for the experimental part: Evaluating compounds for inhibition in the GroEL-mediated ATPase assay. All compounds were evaluated for inhibiting E. coli GroEL-mediated ATPase activity as per our previously reported procedure although employing only GroEL in solution and not containing GroES or denatured MDH. Evaluating compounds for inhibition in the GroEL-mediated ATPase assay.
Reagent preparation: For this assay, four primary reagent solutions were prepared: 1) GroEL protein solution; 2) ATP initiation solution; 3) EDTA quench solution; 4) malachite green reporter solution. The GroEL protein solution consisted of 100 nM of GroEL in folding buffer (50 mM Tris-HCl, pH 7.4, 50 mM KCl, 10 mM MgCl2, and 1 mM DTT), which was prepared immediately prior to dispensing into the assay plates. For the ATP initiation solution, ATP solid was diluted into folding buffer to a final concentration of 2 mM. Quench solution contained 300 mM EDTA (pH 8.0). The malachite green reporter solution contained 0.034% w/v malachite green, 1.04% w/v ammonium molybdate, 1% Tween-20, and 1 M HCl dissolved in H2O.
Assay Protocol: First, 10 μL aliquots of the GroEL protein solution were dispensed into clear, flat-bottom 384-well polystyrene plates. […] After incubating for 45 minutes at 37° C., 10 μL of the EDTA quench solution was added to quench the reaction cycle. Then, 60 μL of the malachite green reporter solution was added and the plates were incubated at room temperature for 10 min. The absorbance of the malachite green-phosphate complex was measured at 600 nm using a Molecular Devices SpectraMax Plus384 microplate reader. A second set of baseline control plates were prepared analogously, but without GroEL protein solution, to correct for possible interference from compound absorbance or turbidity. […] Results presented represent the averages of IC50 values obtained from at least four replicates.
Evaluating analogs for inhibiting GroEL-mediated ATPase activity. […] Thus, we further tested analogs in a well-established GroEL ATPase assay that employed malachite green to monitor inorganic phosphate liberated as GroEL hydrolyzed ATP. Briefly, a solution of GroEL was incubated with test compounds (8-point, 3-fold dilution series) and the assay was initiated by addition of ATP. After incubating for 45 minutes, the ATPase reaction was quenched by the addition of EDTA. Malachite green was then added to the assay to bind and detect free phosphates in solution (absorbance detection at k=600 nm). If analogs inhibited ATPase activity, then there would be no free phosphates for malachite green to bind, leading to minimal absorbance at 600 nm.

Assay [2] relates to Acinetobacter baumannii strain 2208 (ATCC 19606). Nature of the assay: bacterial proliferation assay, A. baumannii. The settings on record: ATCC19606, read-out: Bacterial Proliferation EC50 A. baumannii. It counts as cell-based. As for the experimental part:
as §1, §2, §3, §4

Assay [3] has as its system Staphylococcus aureus strain Seattle 1945 (ATCC #25923). Nature of the assay: bacterial proliferation assay, S. aureus. It counts as cell-based. The method, then: as §1, §2, §3, §4
Where [4] appears, read: Staphylococcus aureus, ATCC25923; read-out: Bacterial Proliferation EC50 S. aureus.

Like-named read-outs stand apart in the source and are kept apart here.

T1 sequence (P0A6F5 2-548): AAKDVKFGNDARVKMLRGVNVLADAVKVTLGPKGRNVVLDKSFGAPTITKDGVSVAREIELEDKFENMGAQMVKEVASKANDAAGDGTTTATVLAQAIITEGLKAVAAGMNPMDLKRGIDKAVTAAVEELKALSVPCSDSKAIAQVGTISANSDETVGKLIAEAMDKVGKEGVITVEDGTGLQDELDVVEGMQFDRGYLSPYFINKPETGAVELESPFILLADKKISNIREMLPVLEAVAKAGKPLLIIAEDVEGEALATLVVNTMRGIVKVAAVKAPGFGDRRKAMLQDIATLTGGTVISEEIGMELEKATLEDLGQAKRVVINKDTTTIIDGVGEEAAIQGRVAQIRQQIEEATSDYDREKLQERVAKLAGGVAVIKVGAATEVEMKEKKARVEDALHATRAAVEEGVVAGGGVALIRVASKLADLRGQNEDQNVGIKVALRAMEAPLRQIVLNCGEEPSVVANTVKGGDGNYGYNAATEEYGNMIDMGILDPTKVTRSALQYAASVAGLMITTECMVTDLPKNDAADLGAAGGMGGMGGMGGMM

With `O=C(N/N=C/c1ccc([N+](=O)[O-])o1)c1ccc(Cl)s1` [Compound 17, 5-chloro-N′-((5-nitrofuran-2-yl)methylene)thiophene-2-carbohydrazide], in assay [1], the “inhibition of K. pneumoniae in words” value was “moderate inhibitors”. Moreover, the values for the EC50 in assay [1], in assay [2] and in assay [3] (setting [4]) were 19 µM, 72 µM and 3 µM, respectively. Moreover, the IC50 – broadly, the concentration that gives 50% inhibition – at E. coli GroEL (GroEL only, no GroES or dMDH, read-out: GroEL ATPase IC50) is more than 250 µM.
Turning to `O=C(N/N=C/c1ccc(O)c2ncccc12)c1ccc(NS(=O)(=O)c2ccc(Br)cc2)cc1` [Compound 14, 4-bromo-N-(4-(2-((8-hydroxyquinolin-5-yl)methylene)hydrazine-1-carbonyl)phenyl)benzenesulfonamide], the EC50 in assay [1] is more than 100 µM; in assay [2], 84 µM; in assay [3] (Staphylococcus aureus, ATCC25923, read-out: Bacterial Proliferation EC50 S. aureus) it was more than 100 µM. Also, on E. coli GroEL, the IC50 is more than 250 µM.
`COc1ccc(C(=O)N/N=C/c2ccccc2)cc1` [Compound 37, N′-benzylidene-4-methoxybenzohydrazide]: the EC50 in assay [1], in assay [2] and in assay [3] (setting [4]) was more than 100 µM throughout. The IC50 at E. coli GroEL is more than 250 µM.
As to `O=C(N/N=C/c1cccc2ccccc12)c1ccccc1` [Compound 34, N′-(naphthalen-1-ylmethylene)benzohydrazide], the EC50 in assay [1], in assay [2] and in assay [3] (setting [4]) was more than 100 µM in each case. Also, the IC50 against E. coli GroEL was more than 250 µM.
On to `O=C(N/N=C/c1ccc([N+](=O)[O-])o1)c1ccc(NS(=O)(=O)c2ccc(Br)cc2)cc1` [Compound 27, 4-bromo-N-(4-(2-((5-nitrofuran-2-yl)methylene)hydrazine-1-carbonyl)phenyl)benzenesulfonamide], for which the EC50 in assay [1], in assay [2] and in assay [3] (setting [4]) was more than 100 µM each time. This compound had an IC50 at E. coli GroEL of more than 250 µM.
`CCN(CC)S(=O)(=O)c1cccc(C(=O)N/N=C/c2ccc(O)c3ncccc23)c1` [Compound 12, N,N-diethyl-3-(2-((8-hydroxyquinolin-5-yl)methylene)hydrazine-1-carbonyl)benzenesulfonamide]: the EC50 in assay [1], in assay [2] and in assay [3] (setting [4]) was more than 100 µM in each case. At E. coli GroEL, this compound showed an IC50 of more than 250 µM.
In the case of `O=C1CN(/N=C/c2ccc([N+](=O)[O-])o2)C(=O)N1` [Nitrofurantoin, reference compound], the results for the EC50 in assay [1], in assay [2] and in assay [3] (setting [4]) were 40 µM, more than 100 µM and 27 µM, respectively. This compound also yielded an IC50 at E. coli GroEL of more than 250 µM.
The corresponding values for `O=Cc1ccc([N+](=O)[O-])o1` [Compound 41, reference compound] are 10 µM, 12 µM, 5.8 µM and more than 250 µM.
